Values quoted from earlier work, collected in article PMC3649970, “A Unique Spumavirus Gag N-terminal Domain with Functional Properties of Orthoretroviral Matrix and Capsid” (PLoS Pathogens, 2013).

Test system: equivalent Gag-NtD (FFV)
Details: FFV Env leader peptide with FFV Gag-NtD; ref [29]; cited from earlier work
Source text: In the structure, residues 7–16 of the Env leader peptide comprise the amphipathic α-helix bound in the Env binding site of the Gag-NtD and residues 1–6 provide intramolecular hydrogen bonding that stabilises the helical conformation. […] Therefore, the hydrophobic interface observed in the structure likely represents the complete interaction between the leader peptide and FV Gag. The apolar ch ...

residues 1–30 of the FFV Env leader peptide: residues 1–30 of the FFV Env leader peptide (MEQEHVMTLKEWMEWNAHKQLQKLQSTHPE; leader peptide; UniProt O56861 1-30, looked up, fragment)
equilibrium association constant: 65000 M⁻¹
